For assay [1], the target named is T1, M-phase inducer phosphatase 1 (Homo sapiens, UniProt P30304).
T1 sequence (P30304 whole entry): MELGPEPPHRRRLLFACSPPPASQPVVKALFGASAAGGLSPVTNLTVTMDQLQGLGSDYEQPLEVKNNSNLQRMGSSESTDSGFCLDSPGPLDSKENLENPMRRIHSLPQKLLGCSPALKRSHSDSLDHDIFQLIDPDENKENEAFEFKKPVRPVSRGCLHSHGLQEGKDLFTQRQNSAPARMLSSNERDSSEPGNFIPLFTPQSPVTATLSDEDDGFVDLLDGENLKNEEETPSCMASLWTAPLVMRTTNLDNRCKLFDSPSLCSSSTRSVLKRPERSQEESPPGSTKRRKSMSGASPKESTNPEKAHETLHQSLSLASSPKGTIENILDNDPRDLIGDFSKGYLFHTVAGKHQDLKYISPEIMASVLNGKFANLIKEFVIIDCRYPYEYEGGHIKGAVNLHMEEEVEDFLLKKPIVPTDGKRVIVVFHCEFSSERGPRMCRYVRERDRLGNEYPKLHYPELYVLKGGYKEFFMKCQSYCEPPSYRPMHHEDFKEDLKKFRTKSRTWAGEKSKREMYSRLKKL
The experiment in a line: Inhibition of Cdc25A (unknown origin) phosphatase activity assessed as fluorescence by BMG plate reader in the presence of 0.005% Tween-20.

For assay [2], the target named is T2, M-phase inducer phosphatase 2 (Homo sapiens, UniProt P30305).
T2 sequence (P30305 whole entry): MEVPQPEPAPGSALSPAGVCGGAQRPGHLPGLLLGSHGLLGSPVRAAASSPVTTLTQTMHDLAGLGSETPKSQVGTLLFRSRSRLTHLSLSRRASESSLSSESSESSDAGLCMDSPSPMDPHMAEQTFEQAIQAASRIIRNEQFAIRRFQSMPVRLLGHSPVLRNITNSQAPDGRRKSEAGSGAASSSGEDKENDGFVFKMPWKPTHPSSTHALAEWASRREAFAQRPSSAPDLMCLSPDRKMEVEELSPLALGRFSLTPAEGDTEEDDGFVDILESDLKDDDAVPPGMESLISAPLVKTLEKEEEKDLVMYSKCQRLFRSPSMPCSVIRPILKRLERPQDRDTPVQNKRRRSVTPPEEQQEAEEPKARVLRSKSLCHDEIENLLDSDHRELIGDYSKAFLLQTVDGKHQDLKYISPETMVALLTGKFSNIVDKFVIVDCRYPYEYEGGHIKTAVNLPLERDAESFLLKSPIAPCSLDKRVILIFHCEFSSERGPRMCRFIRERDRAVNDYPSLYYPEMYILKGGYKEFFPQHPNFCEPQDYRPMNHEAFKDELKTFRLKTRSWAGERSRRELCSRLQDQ
As to the kind of experiment: Inhibition of Cdc25B (unknown origin) phosphatase activity assessed as fluorescence by BMG plate reader in the presence of 0.005% Tween-20.

The target of assay [3] is T3, M-phase inducer phosphatase 3 (Homo sapiens, UniProt P30307).
T3 sequence (P30307 whole entry): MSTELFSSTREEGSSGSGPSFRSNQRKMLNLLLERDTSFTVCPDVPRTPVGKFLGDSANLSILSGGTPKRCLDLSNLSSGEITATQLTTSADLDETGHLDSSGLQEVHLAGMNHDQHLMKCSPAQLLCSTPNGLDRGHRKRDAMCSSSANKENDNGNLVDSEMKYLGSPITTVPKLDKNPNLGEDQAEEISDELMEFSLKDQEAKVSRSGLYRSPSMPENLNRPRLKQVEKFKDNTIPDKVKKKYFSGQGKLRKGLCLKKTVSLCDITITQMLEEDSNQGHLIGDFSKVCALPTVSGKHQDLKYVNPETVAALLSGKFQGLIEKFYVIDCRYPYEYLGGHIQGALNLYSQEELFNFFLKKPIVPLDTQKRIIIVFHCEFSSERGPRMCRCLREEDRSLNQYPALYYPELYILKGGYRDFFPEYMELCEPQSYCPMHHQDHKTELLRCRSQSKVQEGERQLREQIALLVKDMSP
The experiment in a line: Inhibition of Cdc25C (unknown origin) phosphatase activity assessed as fluorescence by BMG plate reader in the absence of detergent.

For assay [4], the species on record is Homo sapiens. The experiment in a line: Inhibition of MKP-5/p38 (unknown origin) phosphatase activity assessed as fluorescence at 100 uM by BMG plate reader in the presence of 0.005% Tween-20.
The target in assay [5] is T4, Dual specificity protein phosphatase 3 (Homo sapiens, UniProt P51452). As to the kind of experiment: Inhibition of human His-tagged VHR phosphatase activity assessed as fluorescence by BMG plate reader in the presence of 0.005% Tween-20.
The target in assay [6] is T5, Tyrosine-protein phosphatase non-receptor type 1 (Homo sapiens) (UniProt P18031).
T5 sequence (whole entry): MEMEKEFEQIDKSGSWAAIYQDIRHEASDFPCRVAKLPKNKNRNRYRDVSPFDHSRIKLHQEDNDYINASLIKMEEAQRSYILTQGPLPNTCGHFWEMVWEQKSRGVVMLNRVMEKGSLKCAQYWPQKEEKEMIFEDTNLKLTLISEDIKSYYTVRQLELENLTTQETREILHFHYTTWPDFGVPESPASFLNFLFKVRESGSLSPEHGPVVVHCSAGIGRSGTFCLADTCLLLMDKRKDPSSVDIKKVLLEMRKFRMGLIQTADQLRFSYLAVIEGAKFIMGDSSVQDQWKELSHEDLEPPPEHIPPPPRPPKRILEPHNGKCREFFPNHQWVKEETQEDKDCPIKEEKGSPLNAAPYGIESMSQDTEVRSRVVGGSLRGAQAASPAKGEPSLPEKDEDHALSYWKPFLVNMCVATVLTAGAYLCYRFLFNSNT
As to the kind of experiment: Inhibition of PTP1B (unknown origin) phosphatase activity assessed as fluorescence at 100 uM by BMG plate reader in the presence of 0.005% Tween-20.

The target in assay [7] is T1, M-phase inducer phosphatase 1. As to the kind of experiment: Inhibition of Cdc25A (unknown origin) phosphatase activity assessed as fluorescence by BMG plate reader in the absence of detergent.
For assay [8], the target named is T4, Dual specificity protein phosphatase 3. As to the kind of experiment: Inhibition of human His-tagged VHR phosphatase activity assessed as fluorescence by BMG plate reader in the absence of detergent.
Assay [9] deals with T3, M-phase inducer phosphatase 3. The experiment in a line: Inhibition of Cdc25C (unknown origin) phosphatase activity assessed as fluorescence by BMG plate reader in the presence of 0.005% Tween-20.
Assay [10] concerns the target T2, M-phase inducer phosphatase 2. As to the kind of experiment: Inhibition of Cdc25B (unknown origin) phosphatase activity assessed as fluorescence by BMG plate reader in the absence of detergent.
For assay [11], the species on record is Homo sapiens. The experiment in a line: Inhibition of alkaline phosphatase (unknown origin) phosphatase activity assessed as fluorescence at 100 uM by BMG plate reader in the presence of 0.005% Tween-20.

Results on two compounds are retold here after ChEMBL document CHEMBL3217647, “Prospective use of molecular field points in ligand-based virtual screening: efficient identification of new reversible Cdc25 inhibitors” (Medchemcomm, 2013).

For orientation: IC50 means the concentration at which inhibition is half-maximal. Usually inhibition stands for the percentage by which the read-out fell short of the control.

T4 sequence (P51452 whole entry): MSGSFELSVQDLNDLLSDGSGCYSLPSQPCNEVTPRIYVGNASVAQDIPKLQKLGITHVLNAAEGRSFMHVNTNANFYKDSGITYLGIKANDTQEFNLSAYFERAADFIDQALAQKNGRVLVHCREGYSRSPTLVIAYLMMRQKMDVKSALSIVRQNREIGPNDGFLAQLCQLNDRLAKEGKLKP

For `CCOc1ccc(-c2nc(-c3ccc4c(c3)CC(=O)N4C)cs2)cc1`, the IC50 in [1] is 33.6 µM; in assay [2], 50 µM; in assay [3], more than 100 µM; in assay [5], 64.5 µM; in assay [7], 9.5 µM; in assay [8] it was 10.6 µM. Further, the IC50 in assay [9] was 47.6 µM; in [10] it was 22.7 µM. The inhibition (in the assay listed under Homo sapiens [4]; in assay [6]; in the assay listed under Homo sapiens [11]) was less than 50% each time.
In the case of `COc1ccc(-c2nc(-c3cc(C)n(CC4CCCO4)c3C)cs2)cc1` (configuration not stated), the IC50 in assay [1] was found to be 31.1 µM; in assay [2] it was 23.6 µM; in [3] it was 24.7 µM; in assay [5], 33.3 µM; in assay [7] it was 6.4 µM; in assay [8], 8.3 µM. For the same compound, the IC50 in [9] is more than 100 µM; in assay [10], 12.1 µM. In addition, the inhibition (in the assay listed under Homo sapiens [4]; in assay [6]; in the assay listed under Homo sapiens [11]) was less than 50% in each case.
